From ChEMBL document CHEMBL1201862, “PubChem BioAssay data set” (2004)
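Grown in 96-well plates, cells were treated for 48 hours with each compound at five concentrations. Insufficient inhibition: endpoint recorded as highest concentration tested. Abbreviation: GI50, concentration required for 50% inhibition of growth.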 Active and inactive are the calls of the source. Cut-off read from the data, not from the text of the source: active = GI50 up to about 1.1 µM and inactive = higher.

Legend:
Experiment in all cases: NCI-60 cell line screen, 48 h
786-0 = test system: 786-0
HOP-62 = test system: HOP-62
HOP-92 = test system: HOP-92
IGROV-1 = test system: IGROV-1
K562 = test system: K562
KM12 = test system: KM12
NCI-H226 = test system: NCI-H226
NCI-H460 = test system: NCI-H460
OVCAR-3 = test system: OVCAR-3
RPMI-8226 = test system: RPMI-8226
SF-539 = test system: SF-539
SK-MEL-2 = test system: SK-MEL-2
SK-OV-3 = test system: SK-OV-3
SNB-75 = test system: SNB-75
UO-31 = test system: UO-31
A498 = test system: A498
TK-10 = test system: TK-10

Measured: GI50

COc1ccc(CCc2cc(OC)c(O)c(OC)c2)cc1
inactive: 786-0 > 100 µM | HOP-62 98.6 µM | HOP-92 66.8 µM | IGROV-1 > 100 µM | K562 33 µM | KM12 58.2 µM | NCI-H226 41.8 µM | NCI-H460 82 µM | OVCAR-3 79.4 µM | RPMI-8226 50.8 µM | SF-539 60.7 µM | SK-MEL-2 53 µM | SK-OV-3 > 100 µM | SNB-75 29.4 µM | UO-31 42.6 µM

CCCCC1CC(c2ccc(Cl)cc2)=NO1 (stereo not drawn)
inactive: 786-0 > 100 µM | A498 > 100 µM | HOP-62 > 100 µM | HOP-92 > 100 µM | IGROV-1 > 100 µM | K562 > 100 µM | KM12 > 100 µM | NCI-H226 > 100 µM | NCI-H460 > 100 µM | OVCAR-3 > 100 µM | RPMI-8226 > 100 µM | SF-539 > 100 µM | SK-MEL-2 > 100 µM | SK-OV-3 > 100 µM | SNB-75 > 100 µM | TK-10 > 100 µM | UO-31 > 100 µM

CCC[C@H]1O[C@@H]2CC(=O)O[C@@H]2C2=C1C(=O)C=CC2=O
inactive: 786-0 16.3 µM | A498 34.2 µM | HOP-62 > 54.1 µM | HOP-92 2.7 µM | IGROV-1 18 µM | K562 5.09 µM | KM12 23.6 µM | NCI-H226 13.7 µM | NCI-H460 > 100 µM | OVCAR-3 14.1 µM | RPMI-8226 25.6 µM | SF-539 19.4 µM | SK-MEL-2 20.3 µM | SK-OV-3 > 39.9 µM | SNB-75 17 µM | TK-10 > 42.8 µM | UO-31 18.5 µM

CC(=O)C1Cn2c(nc3ccccc32)C[Se]1 (stereo not drawn)
inactive: 786-0 3.32 µM | A498 17.7 µM | HOP-62 2.37 µM | HOP-92 2.09 µM | IGROV-1 2.22 µM | K562 4.23 µM | KM12 3.4 µM | NCI-H226 3.72 µM | NCI-H460 4.15 µM | OVCAR-3 2.22 µM | RPMI-8226 25.3 µM | SF-539 2.29 µM | SK-OV-3 19.5 µM | SNB-75 2.55 µM | TK-10 4.41 µM | UO-31 3.1 µM

Cc1ccccc1-n1c(C)nc2c1C(=O)c1ccccc1C2=O
inactive: 786-0 44.8 µM | A498 > 100 µM | HOP-62 > 100 µM | K562 37.7 µM | KM12 58.9 µM | NCI-H226 48.3 µM | NCI-H460 36.1 µM | OVCAR-3 24.8 µM | SF-539 28.2 µM | SK-MEL-2 > 100 µM | TK-10 > 100 µM | UO-31 39.2 µM

COc1ccc(OC)c(NC(=O)C(=O)NNC(=O)c2sc(NNC(C)=O)nc2C)c1
inactive: 786-0 35.6 µM | A498 8.3 µM | HOP-62 92.9 µM | HOP-92 8.69 µM | IGROV-1 53.5 µM | K562 17.1 µM | KM12 39.4 µM | NCI-H226 32.7 µM | NCI-H460 30.8 µM | OVCAR-3 21.8 µM | RPMI-8226 30.3 µM | SF-539 26.8 µM | SK-MEL-2 43 µM | SK-OV-3 57.7 µM | TK-10 88.3 µM | UO-31 45.4 µM

CC#CC1C2CCCC1(CSc1ccccc1)NC(=O)O2 (stereo not drawn)
inactive: 786-0 > 100 µM | A498 > 100 µM | HOP-62 > 100 µM | HOP-92 > 100 µM | IGROV-1 > 100 µM | K562 > 100 µM | KM12 > 100 µM | NCI-H226 > 100 µM | NCI-H460 > 100 µM | OVCAR-3 > 100 µM | RPMI-8226 63.8 µM | SF-539 > 100 µM | SK-MEL-2 > 100 µM | SK-OV-3 > 100 µM | SNB-75 > 100 µM | TK-10 > 100 µM | UO-31 > 100 µM

C=C1C(=O)OC2/C=C(\C)C3OC3/C=C(/C(=O)OC)C(O)C(OC(=O)C3(C)OC3C)C12 (stereo not drawn)
inactive: 786-0 1.74 µM | A498 7.64 µM | HOP-62 17.7 µM | HOP-92 2.86 µM | IGROV-1 2.3 µM | KM12 2.95 µM | NCI-H226 15.1 µM | NCI-H460 5.41 µM | OVCAR-3 2.42 µM | SF-539 2.18 µM | SK-MEL-2 2.48 µM | SK-OV-3 13.4 µM | SNB-75 13.5 µM | TK-10 2.74 µM | UO-31 11.2 µM
active: K562 0.685 µM

O=C(c1ccc(Cl)cc1Cl)N(/N=C/C=C/c1ccccc1)c1nnc(-c2ccccc2)c(-c2ccccc2)n1
inactive: 786-0 > 100 µM | A498 > 100 µM | HOP-62 > 100 µM | IGROV-1 > 100 µM | K562 > 100 µM | KM12 > 100 µM | NCI-H226 > 100 µM | NCI-H460 > 100 µM | OVCAR-3 > 100 µM | RPMI-8226 37.5 µM | SF-539 > 100 µM | SK-MEL-2 > 100 µM | SK-OV-3 > 100 µM | SNB-75 > 100 µM | TK-10 > 100 µM | UO-31 76.4 µM

COc1cc(OC(=O)c2c(O)cc(O)c(O)c2C)cc(C)c1C(=O)Oc1cc(C)c(C(=O)O)c(O)c1
inactive: 786-0 > 100 µM | A498 > 100 µM | HOP-62 > 100 µM | HOP-92 > 100 µM | IGROV-1 > 100 µM | K562 > 100 µM | KM12 > 100 µM | NCI-H226 > 100 µM | NCI-H460 > 100 µM | OVCAR-3 > 100 µM | RPMI-8226 > 100 µM | SF-539 > 100 µM | SK-MEL-2 > 100 µM | SK-OV-3 > 100 µM | SNB-75 > 100 µM | TK-10 > 100 µM | UO-31 > 100 µM

COc1ccccc1NC(=O)C1=C(C)NC(C)=C(C(=O)Nc2ccccc2OC)C1/C=C/c1ccccc1
inactive: 786-0 > 100 µM | A498 > 100 µM | HOP-62 > 100 µM | HOP-92 > 100 µM | IGROV-1 > 100 µM | K562 50.2 µM | KM12 > 100 µM | NCI-H226 > 100 µM | NCI-H460 > 100 µM | OVCAR-3 > 100 µM | RPMI-8226 55.3 µM | SF-539 > 100 µM | SK-MEL-2 > 100 µM | SK-OV-3 > 100 µM | SNB-75 25.8 µM | TK-10 > 100 µM | UO-31 > 100 µM

CSc1ccc(/C=C2/C[N+](C)(C)C/C(=C/c3ccc(SC)cc3)C2=O)cc1
active: IGROV-1 0.185 µM
inactive: 786-0 13.7 µM | HOP-92 24.5 µM | K562 5.47 µM | KM12 4.85 µM | NCI-H226 32.1 µM | OVCAR-3 15.9 µM | RPMI-8226 2.93 µM | SF-539 17.7 µM | SK-MEL-2 20.1 µM | SNB-75 6.52 µM | TK-10 50.7 µM | UO-31 > 100 µM

CCOC(=O)c1cc2c(OCc3ccccc3)c(OC)cc3c2c(n1)N(c1ccc(OC)cc1)C(C)C3 (stereo not drawn)
inactive: 786-0 > 50 µM | A498 > 50 µM | HOP-62 > 50 µM | HOP-92 8.91 µM | IGROV-1 > 50 µM | K562 > 50 µM | NCI-H460 49.9 µM | OVCAR-3 23.2 µM | RPMI-8226 2.69 µM | SK-MEL-2 > 50 µM | SK-OV-3 > 50 µM | SNB-75 > 50 µM | TK-10 > 50 µM | UO-31 > 50 µM

O=c1c2ccccc2nc(-c2ccccc2)n1NC(=S)Nc1ccc(Cl)cc1[N+](=O)[O-]
inactive: 786-0 > 100 µM | A498 94 µM | HOP-62 77.3 µM | HOP-92 55.1 µM | IGROV-1 > 100 µM | K562 50.9 µM | KM12 66.4 µM | NCI-H226 20.3 µM | NCI-H460 > 100 µM | RPMI-8226 80.5 µM | SF-539 41.1 µM | SK-MEL-2 > 100 µM | SK-OV-3 > 100 µM | SNB-75 29.2 µM | TK-10 > 100 µM | UO-31 42.2 µM

c1cc2[se][se]c3c4cccc5[se][se]c(c(c1)c23)c54
inactive: 786-0 > 100 µM | A498 > 100 µM | HOP-62 > 100 µM | HOP-92 > 100 µM | IGROV-1 > 100 µM | K562 > 100 µM | KM12 > 100 µM | NCI-H226 > 100 µM | NCI-H460 > 100 µM | OVCAR-3 > 100 µM | RPMI-8226 > 100 µM | SF-539 > 100 µM | SK-MEL-2 > 100 µM | SK-OV-3 > 100 µM | SNB-75 > 100 µM | TK-10 > 100 µM | UO-31 > 100 µM

O=C(O)c1cc(=O)c2cc(C(=O)c3cccs3)c(Cl)c(Cl)c2o1
inactive: 786-0 > 100 µM | A498 > 100 µM | HOP-62 > 100 µM | HOP-92 > 100 µM | IGROV-1 > 100 µM | K562 > 100 µM | KM12 > 100 µM | NCI-H226 > 100 µM | NCI-H460 > 100 µM | OVCAR-3 > 100 µM | RPMI-8226 > 100 µM | SK-MEL-2 > 100 µM | SK-OV-3 > 100 µM | SNB-75 > 100 µM | TK-10 > 100 µM | UO-31 > 100 µM

COc1ccc(COCC(Cn2ccnc2)OCc2ccc(C(=O)O)cc2)cc1 (stereo not drawn)
inactive: 786-0 > 100 µM | A498 > 100 µM | HOP-62 > 100 µM | HOP-92 > 100 µM | IGROV-1 > 100 µM | K562 > 100 µM | KM12 > 100 µM | NCI-H226 > 100 µM | NCI-H460 > 100 µM | RPMI-8226 > 100 µM | SF-539 > 100 µM | SK-MEL-2 > 100 µM | SK-OV-3 > 100 µM | SNB-75 59.6 µM | TK-10 > 100 µM | UO-31 > 100 µM
